Measured values taken from PubChem BioAssay AID2060896 (Molecular Pharmacology Branch, DTP, NCI, 2025).
pIC50: −log10 of the molar value. Each block holds one compound with its values, some of them ahead of it.

Tested on: 941728-121-R-J1-PDC complex spheroid viability
Experiment: Anticancer human tumor 941728-121-R-J1-PDC patient-derived lung adenocarcinoma cell line growth inhibition [RAS]
Settings: for pIC50: curve of first compound; for viability, T/C: stronger effect = lower value
Procedure, shortened: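 Multi-cell-type spheroids: tumor cells plus HUVEC endothelial cells and mesenchymal stem cells. RAS-pathway inhibitors were combined with targeted agents, each dosed in half-log steps down from clinical Cmax, or from 10 microM when Cmax was unknown.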

[1] = second compound 0.000949 µM, first compound 0.00316 µM
[2] = second compound 0.000949 µM, first compound 0.01 µM
[3] = second compound 0.000949 µM, first compound 0.0316 µM
[4] = second compound 0.000949 µM, first compound 0.1 µM
[5] = second compound 0.000949 µM, first compound 0.316 µM
[6] = second compound 0.000949 µM, first compound 1 µM
[7] = second compound 0.003 µM, first compound 0.00316 µM
[8] = second compound 0.003 µM, first compound 0.01 µM
[9] = second compound 0.003 µM, first compound 0.0316 µM
[10] = second compound 0.003 µM, first compound 0.1 µM
[11] = second compound 0.003 µM, first compound 0.316 µM
[12] = second compound 0.003 µM, first compound 1 µM
[13] = second compound 0.00949 µM, first compound 0.00316 µM
[14] = second compound 0.00949 µM, first compound 0.01 µM
[15] = second compound 0.00949 µM, first compound 0.0316 µM
[16] = second compound 0.00949 µM, first compound 0.1 µM
[17] = second compound 0.00949 µM, first compound 0.316 µM
[18] = second compound 0.00949 µM, first compound 1 µM
[19] = second compound 0.03 µM, first compound 0.00316 µM
[20] = second compound 0.03 µM, first compound 0.01 µM
[21] = second compound 0.03 µM, first compound 0.0316 µM
[22] = second compound 0.03 µM, first compound 0.1 µM
[23] = second compound 0.03 µM, first compound 0.316 µM
[24] = second compound 0.03 µM, first compound 1 µM
[25] = second compound 0.0949 µM, first compound 0.00316 µM
[26] = second compound 0.0949 µM, first compound 0.01 µM
[27] = second compound 0.0949 µM, first compound 0.0316 µM
[28] = second compound 0.0949 µM, first compound 0.1 µM
[29] = second compound 0.0949 µM, first compound 0.316 µM
[30] = second compound 0.0949 µM, first compound 1 µM
[31] = second compound 0.3 µM, first compound 0.00316 µM
[32] = second compound 0.3 µM, first compound 0.01 µM
[33] = second compound 0.3 µM, first compound 0.0316 µM
[34] = second compound 0.3 µM, first compound 0.1 µM
[35] = second compound 0.3 µM, first compound 0.316 µM
[36] = second compound 0.3 µM, first compound 1 µM
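Further: spheroids exposed to compounds for 7 days before readout.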
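Wherever viability, T/C is given: 100% = DMSO vehicle control viability.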

pIC50 (second compound 0.000949 µM): > 8.50
pIC50 (second compound 0.003 µM): > 8.50
pIC50 (second compound 0.00949 µM): > 8.50
pIC50 (second compound 0.03 µM): > 8.50
pIC50 (second compound 0.0949 µM): > 8.50
pIC50 (second compound 0.3 µM): > 8.50
SMILES: C=CC(=O)Nc1cc(Nc2nccc(-c3cn(C)c4ccccc34)n2)c(OC)cc1N(C)CCN(C)C + CCn1c(-c2cc(N3CCN(C)CC3)cnc2C(C)OC)c2c3cc(ccc31)-c1csc(n1)CC(NC(=O)C1CC1C)C(=O)N1CCCC(N1)C(=O)OCC(C)(C)C2
viability, T/C [1]: 29.3%
viability, T/C [2]: 29.5%
viability, T/C [3]: 22.1%
viability, T/C [4]: 23.4%
viability, T/C [5]: 24.8%
viability, T/C [6]: 14%
viability, T/C [7]: 25.4%
viability, T/C [8]: 20.8%
viability, T/C [9]: 17.2%
viability, T/C [10]: 18.8%
viability, T/C [11]: 15.5%
viability, T/C [12]: 8.05%
viability, T/C [13]: 16.4%
viability, T/C [14]: 15%
viability, T/C [15]: 14.4%
viability, T/C [16]: 14.4%
viability, T/C [17]: 13.7%
viability, T/C [18]: 9.82%
viability, T/C [19]: 15.8%
viability, T/C [20]: 14.8%
viability, T/C [21]: 15.7%
viability, T/C [22]: 14.6%
viability, T/C [23]: 10.7%
viability, T/C [24]: 12%
viability, T/C [25]: 12.9%
viability, T/C [26]: 14.7%
viability, T/C [27]: 14.6%
viability, T/C [28]: 16.5%
viability, T/C [29]: 10.3%
viability, T/C [30]: 13.9%
viability, T/C [31]: 13.1%
viability, T/C [32]: 14.1%
viability, T/C [33]: 15%
viability, T/C [34]: 12.4%
viability, T/C [35]: 10.7%
viability, T/C [36]: 11.6%

pIC50 (second compound 0.000949 µM): > 8.50
pIC50 (second compound 0.003 µM): > 8.50
pIC50 (second compound 0.00949 µM): > 8.50
pIC50 (second compound 0.03 µM): > 8.50
pIC50 (second compound 0.0949 µM): > 8.50
pIC50 (second compound 0.3 µM): > 8.50
SMILES: O=C(c1ccc(F)c(F)c1Nc1ccc(I)cc1F)N1CC(O)([C@@H]2CCCCN2)C1 + CCn1c(-c2cc(N3CCN(C)CC3)cnc2C(C)OC)c2c3cc(ccc31)-c1csc(n1)CC(NC(=O)C1CC1C)C(=O)N1CCCC(N1)C(=O)OCC(C)(C)C2
viability, T/C [1]: 26%
viability, T/C [2]: 26.8%
viability, T/C [3]: 15.6%
viability, T/C [4]: 19.6%
viability, T/C [5]: 16.4%
viability, T/C [6]: 8.5%
viability, T/C [7]: 21.8%
viability, T/C [8]: 17.2%
viability, T/C [9]: 15.4%
viability, T/C [10]: 14.5%
viability, T/C [11]: 12.3%
viability, T/C [12]: 13.5%
viability, T/C [13]: 15.1%
viability, T/C [14]: 11%
viability, T/C [15]: 12.7%
viability, T/C [16]: 12.7%
viability, T/C [17]: 12%
viability, T/C [18]: 8.59%
viability, T/C [19]: 13.4%
viability, T/C [20]: 12.9%
viability, T/C [21]: 12.2%
viability, T/C [22]: 12.7%
viability, T/C [23]: 8.4%
viability, T/C [24]: 10.3%
viability, T/C [25]: 12.6%
viability, T/C [26]: 12.5%
viability, T/C [27]: 12.3%
viability, T/C [28]: 12.4%
viability, T/C [29]: 11%
viability, T/C [30]: 10.8%
viability, T/C [31]: 12%
viability, T/C [32]: 11.5%
viability, T/C [33]: 12.7%
viability, T/C [34]: 11.5%
viability, T/C [35]: 8.36%
viability, T/C [36]: 9.92%
